The text below walks through data of patent US20030064954A1, “Cationic amphiphilic 1,4-dihydropyridine derivatives useful for delivery of nucleotide containing compounds” (priority 2000, published 2003).

One data set concerns CVI-P cells. The experiment in a line: Cytotoxicity of amphiphile/DNA complexes, percentage of survived cells.
Data set [1] deals with D407 (human retinal pigment epithelial) cells. In words: In vitro transfection of plasmid DNA, β-galactosidase activity per well. Type of data set: cell-based. The following applies: D 407.
The subject of data set [2] is CV-1P (African monkey green kidney fibroblasts cells). The data set is described as above. In kind it is cell-based. The following applies: CVI-P. The method, then: Transfer of plasmid DNA by various compounds was investigated by using CV-1P (African monkey green kidney fibroblasts cells) and D407 (human retinal pigment epithelial) cells.
The cells were cultured in Dulbecco's modified Eagle's medium (DMEM, Gibco), supplemented with 10% fetal bovine serum (FBS), penicillin/streptomycin (100 units/ml and 100 μg/ml respectively) and 2 mM L-glutamine for D 407 cell line. Cell cultures were maintained at 37° C. in a 7% CO2/air incubator. The cells were collected, counted and seeded in growth medium (100 μl) into 96-well culture plate, 20 000 cells per well. One day later the medium was replaced with fresh medium without serum (150 μl)
In the case of confluent CV1-P cells the medium (with of without serum) was changed on fourth day of cell growth before the transfection.
The complexes at different derivative/DNA charge ratios for transfection procedure were prepared just before use in 50 mM MES—50 mM HEPES—75 mM NaCl buffer, pH 7.2 in separate 96 well plates. One hour after changing the serum-free medium with 10% serum the complexes were added to the cells at […]. Dose of DNA per well was 0.6 μg. After 5 h the complexes were removed, the cells were washed with PBS, and the normal growth medium was added. After 45 h of incubation at 37° C. the cells were lysed with 2% Triton X 100, twice deep frozen and the β-galactosidase activity in each well was determined spectrofotometrically with ELx800 automated microplate reader (Bio-Tex Instruments Inc., Winooski, Vt. USA) by monitoring the hydrolysis of o-nitrophenylgalactopyranoside (oNPG) at 405 nm. Purified β-galactosidase from E.coli was used to construct a standard curve and to calculate […] activity in the transfected cells. […] Transfection efficiencies are given as percentage in comparison to transfection efficiency of Lipofectin^R.

For a further data set, the system named is D 407 cells. In words: Cytotoxicity of amphiphile/DNA complexes, percentage of survived cells. Type of data set: cell-based, human. Also noted: concentration or dose not given beside the values.
The test system of the next data set is plasmid DNA. The experiment in a line: DNA condensation/complexation, EtBr displacement assay. Type of data set: binding. The method, then: The ability of the cationic amphiphiles to condense DNA was assessed with an EtBr displacement assay. Briefly, in 96 well plates plasmid DNA (0.6 μg per well) was reacted with 0.002% EtBr in 20 mM HEPES—150 mM NaCl buffer, pH 7.4 and fluorescence intensity was measured at 530 nm (excitation) and 590 nm (emission). Intercalation of EtBr molecules between the base pairs of the DNA double helix results in increased fluorescence signal. Immediately thereafter, the cationic liposomes were added to form complexes at different +/−charge ratios and the quenching of fluorescence intensity of EtBr was monitored. Condensation of DNA upon complexation with liposomes results in the displacement of EtBr from DNA and in decreased fluorescence signal. Fluorescence was measured using FL 500 microplate fluorescence reader (Bio-Tek Instruments Inc., Winooski, Vt., USA).
The values are expressed as percentage of the maximum fluorescence signal when EtBr bound to DNA in the absence of an amphiphile. Each data point is from at least triplicate experiment ±S.D.

Where [3] appears, read: amphiphile/DNA +/− charge ratio 0.5.
[4] abbreviates: amphiphile/DNA +/− charge ratio 1.
Where [5] appears, read: amphiphile/DNA +/− charge ratio 2.
Where [6] appears, read: amphiphile/DNA +/− charge ratio 4.
The mark [7] stands for this setting: amphiphile/DNA +/− charge ratio 8.

Each structure is given as a SMILES string.

For the molecule `CCCCCCCC/C=C\CCCCCCCC(=O)OCC(C[N+](C)(C)C)OC(=O)CCCCCCC/C=C\CCCCCCCC.[Cl-]` (centres unmarked) [DOTAP, N-(1-(2,3-dioleoyloxy)propyl)-N,N,N-trimethylammoniummethyl-sulfate, reference compound], the “cytotoxicity as a percentage of survived cells” value (“cytotoxicity as a percentage” below) was 92,45% in the data set on CVI-P cells (setting [3]); 92,09% in the data set with CVI-P cells (setting [4]); 91,87% in the data set with CVI-P cells (setting [5]); 97,89% with CVI-P cells (setting [6]); 102,3% in the data set with CVI-P cells (setting [7]); 85,08% in the data set with D 407 cells (setting [3]). In addition, the “cytotoxicity as a percentage” value is recorded as 87,48% in the data set with D 407 cells (setting [4]), 80,32% with D 407 cells (setting [5]), 81,34% with D 407 cells (setting [6]) and 76,11% with D 407 cells (setting [7]). In addition, the transfection efficiency in data set [1] (setting [3]) is reported as 0,7 β-galactosidase units per well; in data set [1] (setting [4]) it was 4,8 β-galactosidase units per well; in data set [1] (setting [5]), 25,05 β-galactosidase units per well; in data set [1] (setting [6]) it was 19,6 β-galactosidase units per well; in data set [1] (setting [7]), 4,92 β-galactosidase units per well; in data set [2] (setting [3]), 0,61 β-galactosidase units per well. In addition, the transfection efficiency in data set [2] (setting [4]) was 0,9 β-galactosidase units per well; in data set [2] (setting [5]), 15,58 β-galactosidase units per well; in data set [2] (setting [6]) it was 10,5 β-galactosidase units per well; in data set [2] (setting [7]), 3,19 β-galactosidase units per well. Moreover, the “complexation, percentage of the maximum fluorescence signal when EtBr bound to DNA in the absence of an amphiphile” value with plasmid DNA (setting [3]) was 86,72%; with plasmid DNA (setting [4]), 76,11%; in the data set on plasmid DNA (setting [5]), 69,15%; with plasmid DNA (setting [7]) it was 65,47%.
Take `CCCCCCCCCCCCOC(=O)C1=C(C)NC(C)=C(C(=O)OCCCCCCCCCCCC)C1c1ccc[n+](C)c1.I.[I-]` [V, 3′,5′-Bis(dodecyloxycarbonyl)-1′,4′-dihydro-1,2′,6′-trimethyl-3,4′-bipyridinium iodide]: the “cytotoxicity as a percentage” value in the data set on CVI-P cells (setting [3]) is 100,21%; with CVI-P cells (setting [4]), 87,18%; with CVI-P cells (setting [5]), 71,79%; with CVI-P cells (setting [6]), 40,55%; in the data set on CVI-P cells (setting [7]) it was 8,67%; in the data set with D 407 cells (setting [3]) it was 85,27%. Further, the “cytotoxicity as a percentage” value with D 407 cells (setting [4]) is on record as 66,05%; in the data set with D 407 cells (setting [5]), 55,61%; in the data set with D 407 cells (setting [6]), 9,14%; in the data set on D 407 cells (setting [7]) it was 0,28%. Moreover, the transfection efficiency in data set [1] (setting [3]) is 0,26 β-galactosidase units per well; in data set [1] (setting [4]), 8,10 β-galactosidase units per well; in data set [1] (setting [5]), 8,78 β-galactosidase units per well; in data set [1] (setting [6]), 0,55 β-galactosidase units per well; in data set [1] (setting [7]) it was 0,33 β-galactosidase units per well; in data set [2] (setting [3]) it was 0,48 β-galactosidase units per well. Moreover, the transfection efficiency in data set [2] (setting [4]) is 0,69 β-galactosidase units per well; in data set [2] (setting [5]), 27,19 β-galactosidase units per well; in data set [2] (setting [6]), 5,95 β-galactosidase units per well; in data set [2] (setting [7]), 1,4 β-galactosidase units per well. Further, the “complexation, percentage of the maximum fluorescence signal when EtBr bound to DNA in the absence of an amphiphile” value in the data set with plasmid DNA (setting [3]) is reported as 88,8%; in the data set with plasmid DNA (setting [4]), 80,33%; in the data set on plasmid DNA (setting [5]), 75,17%; with plasmid DNA (setting [6]) it was 71,93%; with plasmid DNA (setting [7]) it was 72,4%.
In the case of `CCCCCCCCCCOC(=O)C1=C(C[n+]2ccccc2)NC(C[n+]2ccccc2)=C(C(=O)OCCCCCCCCCC)C1c1ccccc1.[Br-].[Br-]` [XXII, 1,1′-{[3,5-Bis(decyloxycarbonyl)-1,4-dihydro-4-phenylpyridine-2,6-diyl]dimethylene}bispyridinium dibromide], the “cytotoxicity as a percentage” value with CVI-P cells (setting [3]) is listed as 95,71%; in the data set on CVI-P cells (setting [4]), 87,2%; in the data set with CVI-P cells (setting [5]) it was 84,01%; with CVI-P cells (setting [6]), 78,2%; in the data set on CVI-P cells (setting [7]), 46,74%. Further, the “transfection, result in words” value in data set [2] (entry spans the charge ratios 8-0.5) is given as “No signal”. The “complexation, percentage of the maximum fluorescence signal when EtBr bound to DNA in the absence of an amphiphile” value is given as 77,8% with plasmid DNA (setting [3]); 58,8% in the data set with plasmid DNA (setting [4]); 48,1% with plasmid DNA (setting [5]); 45,1% in the data set on plasmid DNA (setting [6]); 43,5% in the data set with plasmid DNA (setting [7]).
Consider `CCCCCCCCCCOC(=O)C1=C(C[N+](C)(C)CCCCCCCC)NC(C[N+](C)(C)CCCCCCCC)=C(C(=O)OCCCCCCCCCC)C1c1ccccc1.[Br-].[Br-]` [XXVII, N,N′-{[3,5-Bis(decyloxycarbonyl)-1,4-dihydro-4-phenyl-pyridine-2,6-diyl]dimethylene}-N,N,N′,N′-tetramethyl-N,N′-dioctyldiammonium dibromide], for which the “cytotoxicity as a percentage” value with CVI-P cells (setting [3]) is 105,03%; in the data set on CVI-P cells (setting [4]), 98,37%; in the data set with CVI-P cells (setting [5]), 88,41%; in the data set with CVI-P cells (setting [6]) it was 24,62%; in the data set with CVI-P cells (setting [7]), 13,46%. Also, the transfection efficiency in data set [2] (setting [3]) is on record as 0,24 β-galactosidase units per well; in data set [2] (setting [4]) it was 1,63 β-galactosidase units per well; in data set [2] (setting [5]), 36,55 β-galactosidase units per well; in data set [2] (setting [6]), 21,46 β-galactosidase units per well; in data set [2] (setting [7]) it was 3,14 β-galactosidase units per well. The “DNA condensing capacity (mark in Table 2)” value in the data set on plasmid DNA is 23a/XXVII*.
